Results taken from article PMC6856130, “Disrupting coupling within mycobacterial F-ATP synthases subunit ε causes dysregulated energy production and cell wall biosynthesis” (Scientific Reports, 2019).

Assays:
[1] = biological target: F-ATP synthase (subunit c) (Mycobacterium tuberculosis, UniProt A1KI93); type: biochemical
[2] = biological target: F-ATP synthase (subunit ε) (Mycobacterium tuberculosis, UniProt A1KI99); type: biochemical
[3] = biological target: T1, F-ATP synthase (subunit ε) (Mycolicibacterium smegmatis, UniProt A0R1Z9); experiment: NADH-driven ATP synthesis of inverted membrane vesicles; type: biochemical
T1 construct: gene atpC

[4] = biological target: T2, Mtε (F-ATP synthase subunit ε) (Mycobacterium tuberculosis, UniProt P9WPV1); type: binding
T2 construct: gene atpC; recombinant Mtε, 121 residues (N-terminal domain M1-E87, C-terminal domain I90-D121), 15N-labeled
T2 sequence (P9WPV1 whole entry, the tested form may be a part): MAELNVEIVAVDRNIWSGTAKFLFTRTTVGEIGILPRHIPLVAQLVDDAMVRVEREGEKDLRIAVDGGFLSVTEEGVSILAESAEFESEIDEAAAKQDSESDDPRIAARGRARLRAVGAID

Sequence of F-ATP synthase (subunit c) (A1KI93 whole entry): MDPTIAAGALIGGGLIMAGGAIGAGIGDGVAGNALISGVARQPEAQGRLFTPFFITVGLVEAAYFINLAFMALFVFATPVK
Sequence of F-ATP synthase (subunit c) (A1KI99 whole entry partner): as the sequence (P9WPV1 whole entry, the tested form may be a part) above
Sequence of F-ATP synthase (subunit c) (A1KI96 whole entry partner): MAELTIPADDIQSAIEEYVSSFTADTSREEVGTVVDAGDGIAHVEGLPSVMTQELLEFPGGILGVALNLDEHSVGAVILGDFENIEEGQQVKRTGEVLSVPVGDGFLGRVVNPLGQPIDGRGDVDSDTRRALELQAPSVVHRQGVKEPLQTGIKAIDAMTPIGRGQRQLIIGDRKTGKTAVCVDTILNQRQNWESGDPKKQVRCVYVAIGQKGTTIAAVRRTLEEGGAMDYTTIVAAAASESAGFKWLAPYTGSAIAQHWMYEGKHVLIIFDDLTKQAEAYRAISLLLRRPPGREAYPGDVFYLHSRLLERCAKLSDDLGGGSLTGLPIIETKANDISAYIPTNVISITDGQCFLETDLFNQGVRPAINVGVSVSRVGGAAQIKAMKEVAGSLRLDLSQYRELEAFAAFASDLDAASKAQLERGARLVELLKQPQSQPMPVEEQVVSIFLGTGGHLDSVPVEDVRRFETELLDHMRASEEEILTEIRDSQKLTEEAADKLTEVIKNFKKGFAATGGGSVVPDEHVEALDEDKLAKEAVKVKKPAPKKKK
Sequence of F-ATP synthase (subunit c) (A1KI98 whole entry partner): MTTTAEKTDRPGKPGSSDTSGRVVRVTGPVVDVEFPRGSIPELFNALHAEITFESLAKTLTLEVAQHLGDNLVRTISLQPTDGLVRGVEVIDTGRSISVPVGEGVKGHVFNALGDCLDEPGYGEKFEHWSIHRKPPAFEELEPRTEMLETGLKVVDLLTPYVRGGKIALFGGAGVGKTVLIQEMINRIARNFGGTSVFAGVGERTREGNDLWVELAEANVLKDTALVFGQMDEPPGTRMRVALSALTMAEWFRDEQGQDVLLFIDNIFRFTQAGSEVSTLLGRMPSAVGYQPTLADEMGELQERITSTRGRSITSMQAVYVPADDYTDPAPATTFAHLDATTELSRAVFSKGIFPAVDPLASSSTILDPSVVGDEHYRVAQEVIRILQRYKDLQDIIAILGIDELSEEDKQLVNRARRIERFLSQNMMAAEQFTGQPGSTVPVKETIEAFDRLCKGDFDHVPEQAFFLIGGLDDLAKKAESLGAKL
Sequence of F-ATP synthase (subunit ε) (Mycobacterium tuberculosis, UniProt A1KI99) (A1KI99 whole entry): as the sequence (P9WPV1 whole entry, the tested form may be a part) above
Sequence of F-ATP synthase (subunit ε) (Mycobacterium tuberculosis, UniProt A1KI99) (A1KI96 whole entry partner): as the sequence (A1KI96 whole entry partner) above
Sequence of F-ATP synthase (subunit ε) (Mycobacterium tuberculosis, UniProt A1KI99) (A1KI98 whole entry partner): as the sequence (A1KI98 whole entry partner) above
Sequence of F-ATP synthase (subunit ε) (Mycobacterium tuberculosis, UniProt A1KI99) (A1KI97 whole entry partner): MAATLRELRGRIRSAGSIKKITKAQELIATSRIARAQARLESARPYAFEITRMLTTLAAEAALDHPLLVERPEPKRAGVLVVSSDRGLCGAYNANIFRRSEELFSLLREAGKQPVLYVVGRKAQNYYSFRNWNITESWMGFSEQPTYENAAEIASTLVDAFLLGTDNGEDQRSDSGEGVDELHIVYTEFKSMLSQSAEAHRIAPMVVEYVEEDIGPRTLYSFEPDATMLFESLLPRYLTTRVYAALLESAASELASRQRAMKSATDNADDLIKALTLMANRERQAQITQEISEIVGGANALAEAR
Sequence of F-ATP synthase (subunit ε) (Mycobacterium tuberculosis, UniProt A1KI99) (A1KI93 whole entry partner): as the sequence (A1KI93 whole entry) above

| Compound | IC50 [1] [nM] | IC50 [2] [nM] | IC50 [3] [nM] | 1H-15N HSQC NMR titration, Mtε:EGCG 1:2 [4] |
| --- | --- | --- | --- | --- |
| COc1nc2ccc(Br)cc2cc1[C@@H](c1ccccc1)[C@@](O)(CCN(C)C)c1cccc2ccccc12 [bedaquiline] | 7.05 ± 1.32 | – | – | – |
| O=C(O[C@@H]1Cc2c(O)cc(O)cc2O[C@@H]1c1cc(O)c(O)c(O)c1)c1cc(O)c(O)c(O)c1 [epigallocatechin gallate] | – | 2200 ± 300 | 155.6 ± 1.2 | gradual line broadening with increasing molar ratios were observed, which demonstrate binding of EGCG with Mtε |
